Laboratory results taken from paper PMC7165421 (Proceedings of the National Academy of Sciences of the …, 2020).
Blank lines part the entries; values can stand above or below the molecule they belong to.

What was measured:
ARE/Scr dsDNA = assay: DNA binding by fluorescence polarization, ARE/Scr dsDNA; conditions: ΔNTD AR expressed and purified in presence of enzalutamide (20 μM) vs DHT
[1] = system: AR binding from chromatin; conditions: ChIP assays; cited from earlier work
ARE dsDNA = assay: DNA binding by fluorescence polarization, minimal ARE dsDNA; conditions: ΔNTD AR, specificity control
ΔNTD AR = assay: Peptide binding by fluorescence polarization; parameters: species or system mouse
AR LBD = conditions: cited from earlier work
[2] = system: ARE containing double-stranded DNA (dsDNA) templates; assay: DNA binding by fluorescence polarization, all ARE dsDNAs tested; conditions: FL AR relative to ΔNTD AR, DHT-bound

Molecule: CNC(=O)c1ccc(N2C(=S)N(c3ccc(C#N)c(C(F)(F)F)c3)C(=O)C2(C)C)cc1F [ENZ, enzalutamide]
- reduction of AR DNA binding relative to DHT (ARE/Scr dsDNA): twofold
- displacement of AR from chromatin [1]: displaces AR binding from chromatin in cells

Molecule: KTYRGAFQNLFQSVREA [AF1]
- binding to ΔNTD AR with full-length ERG present (ΔNTD AR; equimolar full-length ERG, fluorescein-labeled AF1 peptide): further decrease in AF1 binding
- affinity for ΔNTD AR compared to ERG AIM peptide (ΔNTD AR; presence and absence of DNA, fluorescein-labeled AF1 peptide): more than an order of magnitude reduced affinity
- affinity of AF1 for AR LBD (AR LBD): micromolar

Molecule: QIQLWHFILELLRKEEY [ERF AIM]
- affinity compared to the ERG AIM (ΔNTD AR; ΔNTD AR): slightly less than the ERG AIM

The next lines start with the values.

- stimulation of AR DNA binding (ARE dsDNA): failed to stimulate AR
Molecule: bovine serum albumin (BSA): specificity control

- impairment of DNA binding by presence of NTD [2]: greater than 10 fold
B1: FL AR: recombinant AR with the N terminus intact (protein)
chain: MEVQLGLGRVYPRPPSKTYRGAFQNLFQSVREAIQNPGPRHPEAANIAPPGACLQQRQETSPRRRRRQQHTEDGSPQAHIRGPTGYLALEEEQQPSQQQAASEGHPESSCLPEPGAATAPGKGLPQQPPAPPDQDDSAAPSTLSLLGPTFPGLSSCSADIKDILNEAGTMQLLQQQQQQQQHQQQHQQHQQQQEVISEGSSARAREATGAPSSSKDSYLGGNSTISDSAKELCKAVSVSMGLGVEALEHLSPGEQLRGDCMYASLLGGPPAVRPTPCAPLPECKGLPLDEGPGKSTEETAEYSSFKGGYAKGLEGESLGCSGSSEAGSSGTLEIPSSLSLYKSGALDEAAAYQNRDYYNFPLALSGPPHPPPPTHPHARIKLENPLDYGSAWAAAAAQCRYGDLGSLHGGSVAGPSTGSPPATTSSSWHTLFTAEEGQLYGPGGGGGSSSPSDAGPVAPYGYTRPPQGLTSQESDYSASEVWYPGGVVNRVPYPSPNCVKSEMGPWMENYSGPYGDMRLDSTRDHVLPIDYYFPPQKTCLICGDEASGCHYGALTCGSCKVFFKRAAEGKQKYLCASRNDCTIDKFRRKNCPSCRLRKCYEAGMTLGARKLKKLGNLKLQEEGENSNAGSPTEDPSQKMTVSHIEGYECQPIFLNVLEAIEPGVVCAGHDNNQPDSFAALLSSLNELGERQLVHVVKWAKALPGFRNLHVDDQMAVIQYSWMGLMVFAMGWRSFTNVNSRMLYFAPDLVFNEYRMHKSRMYSQCVRMRHLSQEFGWLQITPQEFLCMKALLLFSIIPVDGLKNQKFFDELRMNYIKELDRIIACKRKNPTSCSRRFYQLTKLLDSVQPIARELHQFTFDLLIKSHMVSVDFPEMMAEIISVQVPKILSGKVKPIYFHTQ
